Experimental data from PubChem BioAssay (NCI).
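How tested: cells in 96-well plates exposed to compound for 48 hours at five concentrations. TGI marks complete inhibition of growth.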

Legend:
Experiment in all cases: NCI tumour cell line growth inhibition, 48 h
MCF7 breast = tested on: MCF7 breast
SR leukemia = tested on: SR leukemia
MDA-MB-435 = tested on: MDA-MB-435
786-0 renal = tested on: 786-0 renal
HT29 colon = tested on: HT29 colon
SK-OV-3 ovarian = tested on: SK-OV-3 ovarian
SNB-75 CNS = tested on: SNB-75 CNS
ACHN renal = tested on: ACHN renal
M14 melanoma = tested on: M14 melanoma
SF-539 CNS = tested on: SF-539 CNS
A549 NSCLC = tested on: A549 NSCLC
CCRF-CEM leukemia = tested on: CCRF-CEM leukemia
SF-268 CNS = tested on: SF-268 CNS
BT-549 breast = tested on: BT-549 breast
RXF 393 renal = tested on: RXF 393 renal
DU-145 prostate = tested on: DU-145 prostate
UACC-62 melanoma = tested on: UACC-62 melanoma
MDA-N = tested on: MDA-N

| SMILES | TGI (MCF7 breast) [µM] | TGI (SR leukemia) [µM] | TGI (MDA-MB-435) [µM] | TGI (786-0 renal) [µM] | TGI (HT29 colon) [µM] | TGI (SK-OV-3 ovarian) [µM] | TGI (SNB-75 CNS) [µM] | TGI (ACHN renal) [µM] | TGI (M14 melanoma) [µM] | TGI (SF-539 CNS) [µM] | TGI (A549 NSCLC) [µM] | TGI (CCRF-CEM leukemia) [µM] | TGI (SF-268 CNS) [µM] | TGI (BT-549 breast) [µM] | TGI (RXF 393 renal) [µM] | TGI (DU-145 prostate) [µM] | TGI (UACC-62 melanoma) [µM] | TGI (MDA-N) [µM] |
| --- | --- | --- | --- | --- | --- | --- | --- | --- | --- | --- | --- | --- | --- | --- | --- | --- | --- | --- |
| C=CCOC(=O)[C@@H]1C[C@@H](OC(C)(C)C)CN1C(=O)[C@@H]1[C@H]2OC(C)(C)O[C@H]2CN1C(=O)OCC1c2ccccc2-c2ccccc21 | > 100 | 31.7 | 34.7 | 9.97 | 33.1 | 31.6 | 33.9 | 30.1 | 36 | 28.9 | 31.9 | 36.3 | 40.1 | 37.1 | 24.7 | 8.12 | 34.5 | 33.4 |
| C=CC[C@@]1(C)CCCCCCCCC[C@@](C)(CC=C)C1=O | > 100 | 63.7 | > 100 | > 100 | 38.2 | > 100 | 92.4 | > 100 | > 100 | > 100 | > 100 | 42.8 | > 100 | 62.3 | 32.6 | > 100 | 67.5 | > 100 |
| C=CC(C)CCC(C/C=C(\C)CCC=C(C)C)C(=C)CCCC(C)C (stereo not drawn) | > 100 | > 100 | > 100 | > 100 | > 100 | > 100 | > 100 | > 100 | > 100 | > 100 | > 100 | > 100 | > 100 | > 100 | > 100 | > 100 | > 100 | > 100 |
| S=c1sc2nc(Cl)nc(Cl)c2s1 | 25.2 | 21.2 | 22.4 | 12.9 | 23.5 | 31.6 | 34.8 | 26.9 | 16.9 | 41.6 | 42.4 | > 46.6 | 34.4 | 24 | 26 | 30.9 | 27.1 | 24.8 |
| CC1OC(OC2C(O)COC(OC3C(C)OC(OC4C(OC(=O)[C@]56CCC(C)(C)C[C@@H]5C5=CCC7[C@@]8(C)C[C@H](O)[C@H](OC9OC(CO)C(O)C(OC%10OC(CO)C(O)C(O)C%10O)C9O)[C@@](C)(CO)[C@@H]8CC[C@@]7(C)[C@]5(C)CC6)OCC(O)C4O)C(O)C3O)C2O)C(O)C(O)C1O (stereo partly drawn) | 36.1 | 25.8 | 42.1 | 30 | 31.5 | 30.3 | 35 | 34.5 | 26.3 | 34.4 | 28.6 | 32.6 | 39.7 | 40.7 | 27.9 | 29 | 39.8 | 32 |
| C=C1C(=O)O[C@H]2[C@H]1CC(=O)/C(C)=C/CC[C@@]1(C)O[C@@H]21 | 1.99 | 7.74 | 5.43 | 1.53 | 4.53 | 25.9 | 31.6 | 1.44 | 1.57 | 4.6 | 27.9 | 0.394 | 13.4 | 2 | 1.08 | 18.7 | 2.76 | 1.27 |
